# Measurements: US4100346A, “Certain 7(o-amino-methyl- or methylaminomethylphenyl- or cyclohexadienyl- or thienylacetamide)-3[1-carboxymethyl-(or ethyl- or propyl-)-tetrazol-5-ylthiomethyl]-3-cephem-4-carboxylic acids” (Bristol-Myers Company, priority 1976, dated 1978)
# Read-outs that look alike come from different tables or passages of the source.
# Key:
# [1] = system: Bordetella bronchiseptica; assay: Growth inhibitory activity, antibiotic dilution technique; conditions: read-out: Minimum inhibitory concentration
# Enterobacter aerogenes = assay: Effect of inoculum size on susceptibility of Enterobacteriaceae; conditions: Klebsiella aerogenes, read-out: Minimum Inhibitory Concentration, Enterobacter aerogenes strain 1
# Proteus rettgeri [2] = assay: Growth inhibitory activity, antibiotic dilution technique
# Clostridium sp. = assay: microbe, parasite or virus in culture; type: cell-based
# Method: (§1) Antibiotic spectrum. […] Procedures were as follows:
# c. Obligate anaerobes. The assay was performed on solid medium, consisting of Brain Heart Infusion Broth (BBL) supplemented with 5% defibrinated sheep blood and 1% Ionagar (Colab).
# Pseudomonas aeruginosa = assay: Growth inhibitory activity, antibiotic dilution technique; conditions: read-out: Minimum inhibitory concentration
# Bacteroides Fragilis = assay: Growth inhibitory activity, antibiotic dilution technique (obligate anaerobes); type: cell-based; conditions: 3 strains, geometric mean when applicable, read-out: Minimum inhibitory concentration
# Method: as §1
# c. Obligate anaerobes. The assay was performed on solid medium, consisting of Brain Heart Infusion Broth (BBL) supplemented with 5% defibrinated sheep blood and 1% Ionagar (Colab). […] The plates were incubated at 37° C. for 48 hours under the oxygen-free conditions attained with a Gas-Pak (BBL) Brewer jar system.
# in vitro = in vitro ADME, human; conditions: read-out: protein bound (converted)
# Enterobacter cloacae [3] = assay: Intramuscular treatment of systemically infected mice; type: in vivo
# From the text: (§2) Treatment of Systemically Infected Mice. The procedures were identical with those published previously [Leitner et al., BL-S640, a Cephalosporin With a Broad Spectrum of Antibacterial Activity: Bioavailability and Therapeutic Properties in Rodents, Antimicrob. Agents Chemother.
# (a) the hog gastric mucin used in infections with Staphylococcus aureus No. 2 was purchased from American Laboratories, Inc., Omaha, Neb.
# Proteus rettgeri [4] = assay: Effect of inoculum size on susceptibility of Enterobacteriaceae; conditions: Providencia rettgeri
# Enterobacter cloacae [5] = assay: as above
# Providencia stuartii = assay: Growth inhibitory activity, antibiotic dilution technique
# [6] = biological target: staphylococcal β-lactamase, Staphylococcus aureus A9606 (Staphylococcus aureus, UniProt P00807); assay: Hydrolysis by β-lactamase in cell-free extracts; type: biochemical; conditions: cell-free extract
# staphylococcal β-lactamase, Staphylococcus aureus A9606, sequence (P00807 25-281): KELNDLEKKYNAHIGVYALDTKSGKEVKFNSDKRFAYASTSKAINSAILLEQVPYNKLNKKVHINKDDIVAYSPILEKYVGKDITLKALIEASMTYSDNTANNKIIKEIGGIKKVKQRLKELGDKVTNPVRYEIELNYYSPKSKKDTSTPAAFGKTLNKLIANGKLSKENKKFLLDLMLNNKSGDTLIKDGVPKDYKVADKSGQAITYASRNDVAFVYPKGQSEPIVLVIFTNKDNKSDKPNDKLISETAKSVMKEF
# Method: Miscellaneous. Methods for determining bactericidal activity and susceptibility to cell-free β-lactamase were those previously used; Leitner et al., BL-S640, A Cephalosporin With a Broad Spectrum of Antibacterial Activity: Properties in vitro, Antimicrob. Agents Chemother. 7:298-305 (1975).
# Susceptibility to β-lactamase. Susceptibility to enzymic hydrolysis was assessed by determining relative rates of hydrolysis by cell-free preparations of various β-lactamases (Table 6). BL-S786 was slightly to markedly less susceptible than the other cephalosporins to hydrolysis by β-lactamases of Type Ia, Ib, IIIa and IVa. All cephalosporins were poor substrates for Type IIa and staphylococcal β-lactamases. The four cephalosporins were hydrolyzed at similar rates by the Type IVb enzyme.
# Listeria monocytogenes = assay: Growth inhibitory activity, antibiotic dilution technique; conditions: read-out: Minimum inhibitory concentration
# Neisseria gonorrhoeae = assay: as above
# Haemophilus influenzae = assay: as above; conditions: including 9 ampicillin-resistant strains
# Vibrio cholerae = assay: as above; conditions: read-out: Minimum inhibitory concentration
# Citrobacter sp. = assay: as above
# Streptococcus pyogenes = assay: Intramuscular treatment of systemically infected mice; type: in vivo; conditions: im, 3.5 h, read-out: PD50 /treatment
# From the text: as §2, with “Chemother. 7:306-310, (1975)], except that:” for “Chemother.”
# (§3) (a) the hog gastric mucin used in infections with Staphylococcus aureus No. 2 was purchased from American Laboratories, Inc., Omaha, Neb. (lot No. 154163) and b) that the medium used to suspend all other organisms contained 3% (rather than 4%) hog gastric mucin (type 1701W, Wilson Laboratories, Inc., Park Forest South, Ill.).
# (§4) *Animals infected with penicillinase-producing staphyloccal strains (No.
# (§5) and 3) were treated 0 and 2 hours after infection; the others were treate
# (§6) 1 and 3.5 hours after infection.
# Streptococcus pneumoniae = assay: as above; type: in vivo; conditions: im, 3.5 h, read-out: PD50 /treatment
# From the text: as §2, with “Chemother. 7:306-310, (1975)], except that:” for “Chemother.”
# as §3, §4, §5, §6
# Staphylococcus aureus = assay: as above; type: in vivo; conditions: im, read-out: PD50 /treatment
# From the text: as §2, with “Chemother. 7:306-310, (1975)], except that:” for “Chemother.”
# as §3, §4, §5, §6
# [7] = read-out: Minimum inhibitory concentration
# [8] = read-out: Minimum Inhibitory Concentration, Proteus rettgeri strain 1, A, Inoculum of 10^2 organisms
# [9] = read-out: Minimum Inhibitory Concentration, Proteus rettgeri strain 1, B, Inoculum of 10^6 organisms
# [10] = read-out: Minimum Inhibitory Concentration, Proteus rettgeri strain 2, A, Inoculum of 10^2 organisms
# [11] = read-out: Minimum Inhibitory Concentration, Proteus rettgeri strain 2, B, Inoculum of 10^6 organisms
# [12] = read-out: Minimum Inhibitory Concentration, Proteus rettgeri strain 3, A, Inoculum of 10^2 organisms
# [13] = read-out: Minimum Inhibitory Concentration, Proteus rettgeri strain 3, B, Inoculum of 10^6 organisms
# [14] = read-out: Minimum Inhibitory Concentration, Enterobacter cloacae strain 1, A, Inoculum of 10^2 organisms
# [15] = read-out: Minimum Inhibitory Concentration, Enterobacter cloacae strain 1, B, Inoculum of 10^6 organisms
# [16] = read-out: Minimum Inhibitory Concentration, Enterobacter cloacae strain 2, A, Inoculum of 10^2 organisms
# [17] = read-out: Minimum Inhibitory Concentration, Enterobacter cloacae strain 2, B, Inoculum of 10^6 organisms
# [18] = read-out: Minimum Inhibitory Concentration, Enterobacter cloacae strain 3, A, Inoculum of 10^2 organisms
# [19] = read-out: Minimum Inhibitory Concentration, Enterobacter cloacae strain 3, B, Inoculum of 10^6 organisms
# [20] = read-out: Minimum Inhibitory Concentration, Enterobacter cloacae strain 4, A, Inoculum of 10^2 organisms
# [21] = read-out: Minimum Inhibitory Concentration, Enterobacter cloacae strain 4, B, Inoculum of 10^6 organisms
# [22] = read-out: Minimum Inhibitory Concentration, Enterobacter cloacae strain 5, A, Inoculum of 10^2 organisms
# [23] = read-out: Minimum Inhibitory Concentration, Enterobacter cloacae strain 5, B, Inoculum of 10^6 organisms
# [24] = read-out: Minimum inhibitory concentration, Citrobacter sp., 1 strain
# [25] = Streptococcus pyogenes strain 1, challenge 2 × 10^3 -6 × 10^3, treated 1 and 3.5 hours after infection
# [26] = Streptococcus pyogenes strain 2, challenge 1 × 10^4 - 5 × 10^4, treated 1 and 3.5 hours after infection
# [27] = Streptococcus pneumoniae strain 1, challenge 2 × 10^3 - 9 × 10^3, treated 1 and 3.5 hours after infection
# [28] = Streptococcus pneumoniae strain 2, challenge 1 × 10^4 - 3 × 10^4, treated 1 and 3.5 hours after infection
# [29] = 3.5 h, Staphylococcus aureus strain 1, challenge 2 × 10^5 - 3 × 10^5, treated 1 and 3.5 hours after infection
# [30] = Staphylococcus aureus strain 2 (penicillinase-producing), challenge 1 × 10^9, treated 0 and 2 hours after infection
# [31] = Staphylococcus aureus strain 3 (penicillinase-producing), challenge 5 × 10^8 - 7 × 10^9, treated 0 and 2 hours after infection
structure (smiles),measurement,setting,value
CC(=O)OCC1=C(C(=O)O)N2C(=O)[C@@H](NC(=O)Cc3cccs3)[C@H]2SC1 [Cephalothin],MIC,[1],8 µg/mL
same,MIC,"Enterobacter aerogenes; A, Inoculum of 10^2 organisms",32 µg/mL
same,MIC,"Enterobacter aerogenes; B, Inoculum of 10^6 organisms",> 250 µg/mL
same,percent of strains inhibited,Proteus rettgeri [2],negligible
same,MIC,Clostridium sp.; [7],0.5 µg/mL
same,MIC,Pseudomonas aeruginosa,> 125 µg/mL
same,MIC,Bacteroides Fragilis,125 µg/mL
same,fraction unbound,"in vitro; human, serum",0.33
same,ED50,"Enterobacter cloacae [3]; Enterobacter cloacae, im, 3.5 h, read-out: PD50 /treatment",> 400 mg/kg
same,MIC,Proteus rettgeri [4]; [8],0.25 µg/mL
same,MIC,Proteus rettgeri [4]; [9],250 µg/mL
same,MIC,Proteus rettgeri [4]; [10],0.25 µg/mL
same,MIC,Proteus rettgeri [4]; [11],> 250 µg/mL
same,MIC,Proteus rettgeri [4]; [12],32 µg/mL
same,MIC,Proteus rettgeri [4]; [13],> 250 µg/mL
same,MIC,Enterobacter cloacae [5]; [14],8 µg/mL
same,MIC,Enterobacter cloacae [5]; [15],> 250 µg/mL
same,MIC,Enterobacter cloacae [5]; [16],16 µg/mL
same,MIC,Enterobacter cloacae [5]; [17],> 250 µg/mL
same,MIC,Enterobacter cloacae [5]; [18],16 µg/mL
same,MIC,Enterobacter cloacae [5]; [19],250 µg/mL
same,MIC,Enterobacter cloacae [5]; [20],32 µg/mL
same,MIC,Enterobacter cloacae [5]; [21],> 250 µg/mL
same,MIC,Enterobacter cloacae [5]; [22],16 µg/mL
same,MIC,Enterobacter cloacae [5]; [23],250 µg/mL
same,percent of strains inhibited,Providencia stuartii,negligible
same,Relative Rate of Hydrolysis (benzylpenicillin = 100),[6],< 0.5
same,MIC,Listeria monocytogenes,2 µg/mL
same,susceptibility of Neisseria gonorrhoeae,Neisseria gonorrhoeae,equally susceptible
same,relative activity against Haemophilus influenzae,Haemophilus influenzae,more than twice as active
same,MIC,Vibrio cholerae,1 µg/mL
same,MIC,Citrobacter sp.; [24],> 125 µg/mL
same,MIC,"Citrobacter sp.; read-out: Minimum inhibitory concentration, Citrobacter sp., 4 strains, geometric mean when applicable",63 µg/mL
same,ED50,Streptococcus pyogenes; [25],4.5 mg/kg
same,ED50,Streptococcus pyogenes; [26],2.7 mg/kg
same,ED50,Streptococcus pneumoniae; [27],4 mg/kg
same,ED50,Streptococcus pneumoniae; [28],19 mg/kg
same,ED50,Staphylococcus aureus; [29],0.3 mg/kg
same,ED50,Staphylococcus aureus; [30],9.3 mg/kg
same,ED50,Staphylococcus aureus; [31],32 mg/kg
NCc1ccccc1CC(=O)N[C@@H]1C(=O)N2C(C(=O)O)=C(CSc3nnnn3CC(=O)O)CS[C@H]12 [Example 1],MIC,[1],125 µg/mL
same,MIC,"Enterobacter aerogenes; A, Inoculum of 10^2 organisms",1 µg/mL
same,MIC,"Enterobacter aerogenes; B, Inoculum of 10^6 organisms",> 250 µg/mL
same,inhibition at 16 µg/mL,"Proteus rettgeri [2]; Providencia rettgeri, read-out: percent of strains inhibited",78%
same,MIC,"Clostridium sp.; 48 h, read-out: concentration inhibiting all strains",2 µg/mL
same,MIC,Clostridium sp.; [7],2 µg/mL
same,MIC,Pseudomonas aeruginosa,> 125 µg/mL
same,MIC,Bacteroides Fragilis,100 µg/mL
same,fraction unbound,in vitro; In 95% human serum,0.33
same,efficacy against infections with Enterobacter cloacae,"Enterobacter cloacae [3]; mice, intramuscular, compared with control cephalosporins",alone was effective
same,MIC,Proteus rettgeri [4]; [8],0.13 µg/mL
same,MIC,Proteus rettgeri [4]; [9],125 µg/mL
same,MIC,Proteus rettgeri [4]; [10],0.13 µg/mL
same,MIC,Proteus rettgeri [4]; [11],63 µg/mL
same,MIC,Proteus rettgeri [4]; [12],0.25 µg/mL
same,MIC,Proteus rettgeri [4]; [13],> 250 µg/mL
same,MIC,Enterobacter cloacae [5]; [14],1 µg/mL
same,MIC,Enterobacter cloacae [5]; [15],> 250 µg/mL
same,MIC,Enterobacter cloacae [5]; [16],1 µg/mL
same,MIC,Enterobacter cloacae [5]; [17],> 250 µg/mL
same,MIC,Enterobacter cloacae [5]; [18],2 µg/mL
same,MIC,Enterobacter cloacae [5]; [19],> 250 µg/mL
same,MIC,Enterobacter cloacae [5]; [20],2 µg/mL
same,MIC,Enterobacter cloacae [5]; [21],> 250 µg/mL
same,MIC,Enterobacter cloacae [5]; [22],8 µg/mL
same,MIC,Enterobacter cloacae [5]; [23],250 µg/mL
same,percent of strains inhibited,"Providencia stuartii; Providencia stuartii strains, at a concentration of 16 mcg./ml.",Ninety-eight
same,Relative Rate of Hydrolysis (benzylpenicillin = 100),[6],< 0.5
same,MIC,Listeria monocytogenes,10.8 µg/mL
same,susceptibility of Neisseria gonorrhoeae,Neisseria gonorrhoeae,equally susceptible
same,relative activity against Haemophilus influenzae,Haemophilus influenzae,about equally active
same,MIC,Vibrio cholerae,4 µg/mL
same,MIC,Citrobacter sp.; [7],1 µg/mL
same,MIC,Citrobacter sp.; [24],125 µg/mL
same,ED50,Streptococcus pyogenes; [25],2.9 mg/kg
same,ED50,Streptococcus pyogenes; [26],0.93 mg/kg
same,ED50,Streptococcus pneumoniae; [27],0.52 mg/kg
same,ED50,Streptococcus pneumoniae; [28],1.6 mg/kg
same,ED50,Staphylococcus aureus; [29],0.3 mg/kg
same,ED50,Staphylococcus aureus; [30],5.4 mg/kg
same,ED50,Staphylococcus aureus; [31],10 mg/kg
